From BindingDB's records for PubMed 9023294 (Sanofi Recherche, 1997)

Experiments:
Neurotensin = Neurotensin (Cavia porcellus, UniProt P32560)
Neurotensin/neuromedin N = target: T1, Neurotensin/neuromedin N (Human, UniProt P30990)
T1 sequence (P30990 whole entry): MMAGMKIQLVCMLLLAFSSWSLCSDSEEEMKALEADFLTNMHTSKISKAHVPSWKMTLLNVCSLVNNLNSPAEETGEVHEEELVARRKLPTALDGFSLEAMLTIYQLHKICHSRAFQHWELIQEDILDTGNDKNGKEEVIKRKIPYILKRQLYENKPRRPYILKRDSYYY

Compound: COc1cccc(OC)c1-c1cc(C(=O)NC2(C(=O)O)C3CC4CC(C3)CC2C4)nn1-c1ccnc2cc(Cl)ccc12 (stereo not drawn)
- Ki (Neurotensin): 3.9 nM

Compound: COc1cccc(OC)c1-c1cc(C(=O)NC2(C(=O)O)C3CC4CC(C3)CC2C4)nn1-c1ccc(C(=O)N(C)CCCN(C)C)cc1C(C)C (stereo not drawn) [SR142948A]
- Ki (Neurotensin/neuromedin N): 0.28 nM
- Ki (Neurotensin): 0.17 nM
